From patent publication US12241890B2, “Methods for generating barcoded nucleic acid molecules using fixed cells” (10X Genomics, Inc., priority 2019, dated 2025)
Entries after “also recorded” stand apart in the source; their conditions may differ.

How the values were obtained:
[1] = system: RNA treated with formaldehyde; details: Karmakar et al., Nature Chemistry 7: 752-758 (2015); cited from earlier work
PFA-fixed PBMCs = assay: Bulk un-fixing of PFA-fixed PBMCs, bulk RNA isolation and bulk RNA sequencing (Example 1); type: cell-based; details: 4% PFA-fixed PBMCs, 50 mM un-fixing agent, 0.2% SDS, 10 mU/mL Proteinase K, 40° C. 2 h; for complexity of the transcriptomic library relative to no treatment of the fixed PBMCs (FIG. 8): estimated with Preseq
Protocol: Un-fixing agent solutions: the un-fixing agent of compounds (1), (4), (8), and (11) were each formulated in 30 mmol Tris buffer, pH 6.8 to a target concentration of 80 mM and the pH was adjusted to pH 6.5 using 2M NaOH. The final formulation was filtered through a 0.2 μm nylon syringe filter before addition into final composition of 50 mM of the un-fixing agent compound, 0.2% SDS, 10 mU/mL of Proteinase K and 0.2 U/mL RNAse inhibitor in 30 mM Tris, pH 6.8.
Bulk Un-fixing: PBMCs were fixed with 4% PFA for 24 h at 4° C. and quenched with 10% Fetal Bovine Serum (“FBS”) in PBS. The PFA-fixed PBMCs were treated with an un-fixing agent solution of compounds (1), (4), (8), or (11) formulated as described above at 40° C. for 2 h. Three different control samples also were prepared without un-fixing agent added: (1) fresh PBMCs (“Fresh Pellet” control); (2) PBMCs fixed with 4% PFA for 24 h then treated with 0.2% SDS, 10 mU/mL Proteinase K, and 0.2 U/mL RNAse inhibitor in 30 mM Tris, pH 6.8 at 40° C. for 2 h (“Fixed+PK, No UF agt.” control); and (3) PBMCs fixed with 4% PFA for 24 h (“fixed no un-fixing agent” control).
Bulk RNA isolation: After the bulk un-fixing treatment of the PFA-fixed PBMCs, the resulting treated (and control) samples were centrifuged at 450 g for 5 min and pellet as well as supernatant were collected. RNA isolation from collected pellets and supernatants was performed using RNeasy Plus Mini Kit (Qiagen, Cat #_74134) and RNeasy MinElute Cleanup Kit (Qiagen, Cat #74204), respectively. Isolated RNA was quantified using Qubit™ RNA HS Assay Kit (Invitrogen, Cat #Q32855) and Agilent RNA ScreenTape System (Agilent Technologies).
Bulk RNA sequencing: RNA could not be isolated from the “fixed no un-fixing agent” control sample. […] The “Fresh Pellet” control data was obtained by sequencing following bulk RNA isolation using the Qiagen kit without performing the 10× Genomics Single Cell 3′V3 protocol described below. For the four un-fixing agent treated samples and the remaining control samples described above, cDNA amplification was performed using an equivalent of 10 ng RNA. Post cDNA amplification, library prep was performed according to the 10× Genomics Single Cell 3′V3 protocol (10× Genomics, Pleasanton, CA, USA). A 3000-cell load of fresh PBMCs was used as a single cell reference (“Fresh SC3P”) and library prep was performed using Single Cell 3′V3 protocol (10× Genomics, Pleasanton, CA, USA). The final libraries were sequenced to between 25 and 100 million reads on a NovaSeq 6000 sequencer (Illumina Inc., San Diego, CA, USA). Bulk library complexity was estimated using the software package Preseq, as described by Daley and Smith (see e.g., Daley and Smith, “Predicting the molecular complexity of sequencing libraries,” Nature Methods 10:325-327, 2013). Library complexity as used here refers to the estimated number of unique RNA molecules aligned properly to the transcriptome (i.e., reads considered to be informative and used for gene expression counting) as a function of all sequenced reads. Gene expression counts were down-sampled across libraries to match the lowest sequencing depth and pairwise gene expression correlations were computed as the Pearson correlation (R^2) of gene expression counts between samples. When comparing gene expression data from control, unfixed PBMCs, gene expression counts were summed across cells to produce pseudo-bulk gene expression counts, as is customary in commercial gene expression analysis software (e.g., 10× Genomics, Pleasanton, CA, USA).

PFA-fixed Jurkats = assay: Bulk un-fixing of PFA-fixed Jurkats with proline analog un-fixing agents and cold-active protease, RNA yield (Example 10); type: cell-based; details: 4% PFA-fixed Jurkats; 100 mM un-fixing agent, 10 U/mL ArcticZymes Proteinase where present; 14-25° C. 90 min then 80° C. 15 min
Protocol: B. Un-fixing agent stock solutions: the proline analog un-fixing agents of compounds (12), (13), (14), and (15) were each formulated in 50 mmol Tris buffer, pH 8.3 to a target concentration of 300 mM and the pH was adjusted to pH 8.3 using 2M NaOH. The final formulation was filtered through a 0.2 μm nylon syringe filter before addition into final composition of 100 mM of the un-fixing agent compound, 10 U/mL ArcticZymes Proteinase and 0.2 U/mL RNAse inhibitor in 50 mM Tris, pH 8.3.
C. Protease stock solution: A stock solution of 10 U/mL of the cold-active protease, ArcticZymes Proteinase (ArcticZymes Technologies ASA, Tromso, Norway) was stored at −20° C.
D. Bulk un-fixing/protease treatment of fixed cells: Jurkats were fixed with 4% PFA for 24 h at 4° C. and quenched with 10% Fetal Bovine Serum (“FBS”) in PBS. RNAse inhibitor was added to the fixed cell solution together with 10 U/mL of the cold-active protease, ArcticZymes Proteinase, 1 mM of the protease inhibitor, and 100 mM of one of each of the tested un-fixing agents: compound (8), (12), (13), (14), or (15). […]
E. Bulk RNA isolation: After the bulk un-fixing treatment of the PFA-fixed Jurkats, the resulting samples were centrifuged 5 minutes at 500 g, 4° C., and the supernatant and pellet fractions were collected separately. […] Isolated RNA was quantified using Qubit™ RNA HS Assay Kit (Invitrogen, Cat #Q32855).

Molecule: Cc1ccc(N)c(P(=O)(O)O)c1 [(3), (2-amino-5-methylphenyl)phosphonic acid]
- breakdown of aminal and hemi-aminal adducts in RNA treated with formaldehyde [1]: catalytically break down the aminal and hemi-aminal adducts

Molecule: Cc1ccc(N)c(S(=O)(=O)O)c1 [(4), 2-amino-5-methylbenzenesulfonic acid]
- RNA recovery per read sequenced relative to fixed PBMCs treated only with proteinase K and SDS (PFA-fixed PBMCs): increased RNA recovery per read sequenced
- transcriptomic mapping relative to fixed PBMC samples not treated with an un-fixing agent (FIG. 7) (PFA-fixed PBMCs): increased the transcriptomic mapping
- complexity of the transcriptomic library relative to no treatment of the fixed PBMCs (FIG. 8) (PFA-fixed PBMCs): higher complexity of the transcriptomic library

Molecule: Cc1ccc(N)c(C(=O)O)c1 [Compound (1), 2-amino-5-methylbenzoic acid]
- RNA recovery per read sequenced relative to fixed PBMCs treated only with proteinase K and SDS (PFA-fixed PBMCs): increased RNA recovery per read sequenced
- recovery of RNA from the fixed biological sample (PFA-fixed PBMCs): highest recovery of RNA
- transcriptomic mapping relative to fixed PBMC samples not treated with an un-fixing agent (FIG. 7) (PFA-fixed PBMCs): increased the transcriptomic mapping
- complexity of the transcriptomic library relative to no treatment of the fixed PBMCs (FIG. 8) (PFA-fixed PBMCs): higher complexity of the transcriptomic library

Molecule: Nc1ccncc1P(=O)(O)O [Compound (8), (4-aminopyridin-3-yl)phosphonic acid]
- transcriptomic mapping relative to fixed PBMC samples not treated with an un-fixing agent (FIG. 7) (PFA-fixed PBMCs): decreased the transcriptomic mapping
- complexity of the transcriptomic library relative to no treatment of the fixed PBMCs (FIG. 8) (PFA-fixed PBMCs): higher complexity of the transcriptomic library; also recorded: highest library complexity
- Pellet Avg. RNA yield (PFA-fixed Jurkats): 54 ng
- Supernatant Avg. RNA yield (PFA-fixed Jurkats): 200 ng

Molecule: (2-amino-5-{[2-(2-poly-ethoxy)ethyl]carbamoyl} phenyl)phosphonic acid [(11)]
- transcriptomic mapping relative to fixed PBMC samples not treated with an un-fixing agent (FIG. 7) (PFA-fixed PBMCs): decreased the transcriptomic mapping
